Assay results published in patent US20240166635A1, “AMINOHETEROARYL KINASE INHIBITORS” (Anrui Biomedical Technology (Guangzhou) Co.,Ltd., priority 2020, published 2024).

Assays:
Format in all cases: biochemical
CDK2/CyclinE1 = CDK2/CyclinE1 (Homo sapiens (Human), UniProt P24941); test: CDK2/CyclinE1 kinase inhibitory activity (Caliper mobility shift); conditions: read-out: CDK2/Cyclin El IC50
CDK9/CyclinT1 = CDK9/CyclinT1 (Homo sapiens (Human), UniProt P50750); test: CDK9/CyclinT1 kinase inhibitory activity (Caliper mobility shift); conditions: read-out: CDK9/Cyclin T1 IC50
CDK1/CyclinB = CDK1/CyclinB (Homo sapiens (Human), UniProt P06493); test: CDK1/CyclinB kinase inhibitory activity (Caliper mobility shift); conditions: read-out: CDK1/Cyclin B1 IC50
CDK1/CyclinB, sequence (P06493 whole entry): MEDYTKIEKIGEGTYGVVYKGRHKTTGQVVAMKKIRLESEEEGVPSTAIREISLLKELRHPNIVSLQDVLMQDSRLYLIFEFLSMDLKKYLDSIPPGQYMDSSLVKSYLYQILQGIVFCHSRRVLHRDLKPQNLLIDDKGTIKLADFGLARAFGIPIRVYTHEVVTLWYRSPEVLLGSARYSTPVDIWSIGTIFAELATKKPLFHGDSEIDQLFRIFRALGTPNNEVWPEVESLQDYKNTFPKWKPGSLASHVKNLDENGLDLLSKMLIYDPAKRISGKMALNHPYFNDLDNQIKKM
CDK1/CyclinB, sequence (P14635 whole entry partner): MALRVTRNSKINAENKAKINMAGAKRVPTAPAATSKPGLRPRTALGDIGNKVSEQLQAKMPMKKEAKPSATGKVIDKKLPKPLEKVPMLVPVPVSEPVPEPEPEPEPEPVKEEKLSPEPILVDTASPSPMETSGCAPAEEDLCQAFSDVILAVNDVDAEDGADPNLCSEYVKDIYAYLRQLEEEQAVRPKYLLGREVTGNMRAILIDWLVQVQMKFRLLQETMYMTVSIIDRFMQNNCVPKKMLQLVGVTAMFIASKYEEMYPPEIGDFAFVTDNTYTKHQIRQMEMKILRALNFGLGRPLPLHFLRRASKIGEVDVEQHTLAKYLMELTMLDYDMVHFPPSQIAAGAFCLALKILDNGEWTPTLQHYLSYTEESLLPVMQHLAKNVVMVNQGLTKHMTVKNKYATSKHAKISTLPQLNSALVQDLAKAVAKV

CDK9/CyclinT1, sequence (P50750 whole entry): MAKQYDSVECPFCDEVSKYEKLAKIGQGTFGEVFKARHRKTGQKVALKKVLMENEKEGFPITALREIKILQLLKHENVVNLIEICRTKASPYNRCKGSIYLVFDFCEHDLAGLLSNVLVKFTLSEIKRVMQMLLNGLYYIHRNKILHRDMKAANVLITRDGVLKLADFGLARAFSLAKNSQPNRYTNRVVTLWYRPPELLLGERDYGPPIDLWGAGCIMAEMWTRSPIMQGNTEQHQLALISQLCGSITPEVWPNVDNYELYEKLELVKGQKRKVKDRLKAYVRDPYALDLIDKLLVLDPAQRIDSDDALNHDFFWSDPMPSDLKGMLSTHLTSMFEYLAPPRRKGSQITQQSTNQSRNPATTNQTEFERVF
CDK9/CyclinT1, sequence (O60563 whole entry partner): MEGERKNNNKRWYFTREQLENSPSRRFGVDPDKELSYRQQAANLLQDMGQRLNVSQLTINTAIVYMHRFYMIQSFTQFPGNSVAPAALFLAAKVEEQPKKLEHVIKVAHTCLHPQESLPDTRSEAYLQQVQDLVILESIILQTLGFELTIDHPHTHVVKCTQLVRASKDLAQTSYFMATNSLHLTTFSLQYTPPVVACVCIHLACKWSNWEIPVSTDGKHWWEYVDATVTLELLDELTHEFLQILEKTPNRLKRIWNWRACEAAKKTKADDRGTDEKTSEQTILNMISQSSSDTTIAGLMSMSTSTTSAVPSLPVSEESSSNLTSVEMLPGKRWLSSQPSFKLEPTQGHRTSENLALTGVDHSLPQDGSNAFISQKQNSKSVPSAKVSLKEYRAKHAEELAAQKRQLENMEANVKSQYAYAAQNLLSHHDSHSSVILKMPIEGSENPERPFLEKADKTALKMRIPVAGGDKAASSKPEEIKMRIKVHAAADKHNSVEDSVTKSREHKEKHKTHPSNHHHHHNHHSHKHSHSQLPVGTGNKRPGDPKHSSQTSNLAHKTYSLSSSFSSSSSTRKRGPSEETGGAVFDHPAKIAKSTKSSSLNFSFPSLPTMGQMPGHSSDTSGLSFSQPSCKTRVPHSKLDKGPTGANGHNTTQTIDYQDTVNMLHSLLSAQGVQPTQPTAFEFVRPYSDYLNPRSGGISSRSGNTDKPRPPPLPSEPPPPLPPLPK

| Compound | IC50 (CDK2/CyclinE1) | IC50 (CDK9/CyclinT1) | IC50 (CDK1/CyclinB) |
| --- | --- | --- | --- |
| CC(C)NS(=O)(=O)c1ccc(Nc2ncc(C3CC3)c(O[C@@H]3CCC[C@@H]3O)n2)cc1 (single isomer, unassigned) [Example 134b, cis-4-((5-cyclopropyl-4-((2-hydroxycyclopentyl)oxy)pyrimidin-2-yl)amino)-N-isopropylbenzenesulfonamide] | 10 to 100 nM | 100 to 1000 nM | 100 to 1000 nM |
| CNS(=O)(=O)c1ccc(Nc2ncc(C(F)(F)F)c(OC3CCOCC3O)n2)cc1 (single isomer, unassigned) [Example 116b] | 10 to 100 nM | ≥ 1000 nM | 100 to 1000 nM |
| Cc1cnc(Nc2ccc(S(N)(=O)=O)cc2)nc1O[C@@H]1CCC[C@@H]1O (single isomer, unassigned) [Example 132b, cis-4-((4-((2-hydroxycyclopentyl)oxy)-5-methylpyrimidin-2-yl)amino)benzenesulfonamide] | 10 to 100 nM | 100 to 1000 nM | 100 to 1000 nM |
| CS(=O)(=O)N1CCC(Nc2ncc(C(F)(F)F)c(OC3CCCCC3O)n2)CC1 (single isomer, unassigned) [Example 120b] | 10 to 100 nM | ≥ 1000 nM | 100 to 1000 nM |
| CC(C)NS(=O)(=O)c1ccc(Nc2ncc(C#N)c(OC3CCCCC3O)n2)cc1 (single isomer, unassigned) [Example 30b] | 10 to 100 nM | ≥ 1000 nM | 100 to 1000 nM |
| CS(=N)(=O)c1ccc(Nc2ncc(C#N)c(N3CCCCC3)n2)cc1 (stereo not drawn) [Example 90] | 10 to 100 nM | – | 100 to 1000 nM |
| N#Cc1cnc(Nc2ccc(S(N)(=O)=O)cc2)nc1N1CCC[C@@H](CO)C1 [Example 79] | 10 to 100 nM | 100 to 1000 nM | 100 to 1000 nM |
| CNS(=O)(=O)c1ccc(Nc2ncc(Cl)c(OC3CCCC3O)n2)cc1 (single isomer, unassigned) [Example 137b] | < 10 nM | 100 to 1000 nM | 10 to 100 nM |
| [2H]C([2H])([2H])NS(=O)(=O)c1ccc(Nc2ncc(C#N)c(OC3CCCOCC3)n2)cc1 (single isomer, unassigned) [Example 33b] | < 10 nM | ≥ 1000 nM | 100 to 1000 nM |
| C=Cc1cnc(Nc2ccc(S(N)(=O)=O)cc2)nc1OC1CCCC1O (single isomer, unassigned) [Example 155b] | < 10 nM | 100 to 1000 nM | 100 to 1000 nM |
| [2H]C([2H])([2H])NS(=O)(=O)c1ccc(Nc2ncc(C(F)(F)F)c(OC3CCCC3O)n2)cc1 (single isomer, unassigned) [Example 109b] | 10 to 100 nM | 100 to 1000 nM | 100 to 1000 nM |
| CC1CCCC(O)C1Oc1nc(Nc2ccc(S(N)(=O)=O)cc2)ncc1C(F)(F)F (single isomer, unassigned) [Example 112b] | < 10 nM | 100 to 1000 nM | 100 to 1000 nM |
| CCc1cnc(Nc2ccc(S(N)(=O)=O)cc2)nc1O[C@@H]1CCC[C@@H]1O (single isomer, unassigned) [Example 133b, cis-4-((5-ethyl-4-((2-hydroxycyclopentyl)oxy)pyrimidin-2-yl)amino)benzenesulfonamide] | < 10 nM | 100 to 1000 nM | 100 to 1000 nM |
| NS(=O)(=O)c1ccc(Nc2ncc(C(F)(F)F)c(OC3COCCC3O)n2)cc1 (single isomer, unassigned) [Example 115b] | 10 to 100 nM | 100 to 1000 nM | 100 to 1000 nM |
| C[C@@H]1CC[C@H](O)CN1c1nc(Nc2ccc(S(N)(=O)=O)cc2)ncc1C#N [Example 77] | < 10 nM | 10 to 100 nM | 10 to 100 nM |
| CC(C)NS(=O)(=O)c1ccc(Nc2ncc(C#N)c(OC3CCCC3)n2)cc1 [Example 28] | < 10 nM | 100 to 1000 nM | 10 to 100 nM |
| [2H]C([2H])([2H])NS(=O)(=O)c1ccc(Nc2ncc(C)c(OC3CCCC3O)n2)cc1 (single isomer, unassigned) [Example 148b] | 10 to 100 nM | ≥ 1000 nM | 100 to 1000 nM |
| CC1(COc2nc(NC3CCN(S(=O)(=O)c4cn[nH]c4)CC3)ncc2C#N)CCCC1 [Example 8, 2-((1-((1H-pyrazol-4-yl)sulfonyl)piperidin-4-yl)amino)-4-((1-methylcyclopentyl)methoxy)pyrimidine-5-carbonitrile] | – | 100 to 1000 nM | – |
| N#Cc1cnc(Nc2ccc(S(N)(=O)=O)cc2)nc1OCC1CCCCC1 [Example 13] | 10 to 100 nM | – | 10 to 100 nM |
| [2H]C([2H])([2H])NS(=O)(=O)c1ccc(Nc2ncc(C(F)(F)F)c(O[C@H]3CCOC[C@H]3O)n2)cc1 (single isomer, unassigned) [Example 100b, cis-4-((4-((3-hydroxytetrahydro-2H-pyran-4-yl)oxy)-5-(trifluoromethyl)pyrimidin-2-yl)amino)-N-(methyl-d3)benzenesulfonamide] | 10 to 100 nM | – | 100 to 1000 nM |
| [2H]C([2H])([2H])NS(=O)(=O)c1ccc(Nc2ncc(C(=C)F)c(O[C@@H]3CCC[C@@H]3O)n2)cc1 (single isomer, unassigned) [Example 135b, cis-4-((5-(1-fluorovinyl)-4-((2-hydroxycyclopentyl)oxy)pyrimidin-2-yl)amino)-N-(methyl-d3)benzenesulfonamide] | 10 to 100 nM | – | 100 to 1000 nM |
| N#Cc1cnc(Nc2ccc(S(N)(=O)=O)cc2)nc1N1CCCC(c2ccccc2)C1 (racemic) [Example 84] | 10 to 100 nM | – | 10 to 100 nM |
| C=C(F)c1cnc(Nc2ccc(S(=O)(=O)NC)cc2)nc1O[C@@H]1CCC[C@@H]1O (single isomer, unassigned) [Example 135b, cis-4-((5-(1-fluorovinyl)-4-((2-hydroxycyclopentyl)oxy)pyrimidin-2-yl)amino)-N-(methyl-d3)benzenesulfonamide] | – | 100 to 1000 nM | – |
| N#Cc1cnc(Nc2ccc(S(N)(=O)=O)cc2)nc1OCC1(O)CCCCC1 [Example 16] | 10 to 100 nM | – | 100 to 1000 nM |
| C[C@H]1CCCCN1c1nc(Nc2ccc(S(N)(=O)=O)cc2)ncc1F [Example 88] | < 10 nM | – | 10 to 100 nM |
| [2H]C([2H])([2H])NS(=O)(=O)c1ccc(Nc2ncc(C(F)(F)F)c(O[C@H]3CCOC[C@H]3O)n2)c(F)c1 (single isomer, unassigned) [Example 101b, cis-3-fluoro-4-((4-((3-hydroxytetrahydro-2H-pyran-4-yl)oxy)-5-(trifluoromethyl)pyrimidin-2-yl)amino)-N-(methyl-d3)benzenesulfonamide] | 10 to 100 nM | – | – |
| CNS(=O)(=O)c1ccc(Nc2ncc(C(F)(F)F)c(O[C@H]3CCOC[C@H]3O)n2)cc1 (single isomer, unassigned) [Example 100b, cis-4-((4-((3-hydroxytetrahydro-2H-pyran-4-yl)oxy)-5-(trifluoromethyl)pyrimidin-2-yl)amino)-N-(methyl-d3)benzenesulfonamide] | – | 100 to 1000 nM | – |
| CO[C@H]1CCCN(c2nc(Nc3ccc(S(N)(=O)=O)cc3)ncc2C#N)C1 [Example 80] | 10 to 100 nM | – | 100 to 1000 nM |
| [2H]C([2H])([2H])NS(=O)(=O)c1ccc(Nc2ncc(CC)c(OC3COCC3(C)O)n2)cc1 (single isomer, unassigned) [Example 150b] | 100 to 1000 nM | – | ≥ 1000 nM |
| C[C@@H]1CCCCN1c1nc(Nc2ccc(S(N)(=O)=O)cc2)ncc1F [Example 87] | < 10 nM | – | 10 to 100 nM |
